Laboratory results taken from PubChem BioAssay (NCI).
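Grown in 96-well plates, cells were treated for 48 hours with each compound at five concentrations. Insufficient inhibition: endpoint recorded as highest concentration tested. TGI: concentration producing complete growth inhibition.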

What was measured:
Experiment in all cases: inhibition of tumour cell growth, NCI panel, 48 h
[1] = tested on: SF-268 CNS
[2] = tested on: SK-OV-3 ovarian
[3] = tested on: M14 melanoma
[4] = tested on: OVCAR-4 ovarian
[5] = tested on: SF-295 CNS
[6] = tested on: OVCAR-5 ovarian
[7] = tested on: SK-MEL-5 melanoma
[8] = tested on: TK-10 renal
[9] = tested on: MALME-3M melanoma
[10] = tested on: CCRF-CEM leukemia
[11] = tested on: A549 NSCLC
[12] = tested on: KM20L2 colon
[13] = tested on: NCI-H226 lung
[14] = tested on: MOLT-4 leukemia
[15] = tested on: HL-60(TB) leukemia
[16] = tested on: DMS 114 small cell lung
[17] = tested on: SF-539 CNS
[18] = tested on: SNB-75 CNS
[19] = tested on: HOP-18 NSCLC
[20] = tested on: SW-620 colon
[21] = tested on: RXF 393 renal
[22] = tested on: U251 CNS
[23] = tested on: K-562 leukemia
[24] = tested on: DLD-1 colon
[25] = tested on: M19-MEL melanoma
[26] = tested on: RPMI-8226 leukemia
[27] = tested on: CAKI-1 renal
[28] = tested on: HT29 colon
[29] = tested on: LOX IMVI melanoma
[30] = tested on: IGROV1 ovarian
[31] = tested on: OVCAR-3 ovarian
[32] = tested on: NCI-H23 lung
[33] = tested on: KM12 colon
[34] = tested on: SNB-78 CNS
[35] = tested on: HCT-15 colon
[36] = tested on: HOP-92 NSCLC
[37] = tested on: SNB-19 CNS
[38] = tested on: COLO 205 colon
[39] = tested on: SR leukemia
[40] = tested on: HOP-62 NSCLC
[41] = tested on: ACHN renal
[42] = tested on: SK-MEL-28 melanoma
[43] = tested on: SN12C renal
[44] = tested on: NCI-H460 lung
[45] = tested on: DMS 273 small cell lung
[46] = tested on: UACC-62 melanoma
[47] = tested on: SK-MEL-2 melanoma
[48] = tested on: UO-31 renal
[49] = tested on: HCC-2998 colon
[50] = tested on: A498 renal
[51] = tested on: UACC-257 melanoma
[52] = tested on: 786-0 renal
[53] = tested on: HCT-116 colon
[54] = tested on: EKVX NSCLC
[55] = tested on: NCI-H522 lung
[56] = tested on: LXFL 529 NSCLC
[57] = tested on: OVCAR-8 ovarian

N#CC(C(=O)C(=O)C(C#N)c1ccc(Br)cc1)c1ccc(Br)cc1 (stereo unspecified)
TGI [1]: 32.4 µM
TGI [2]: 33.1 µM
TGI [3]: 31.6 µM
TGI [4]: 24.9 µM
TGI [5]: 26.6 µM
TGI [6]: 32.1 µM
TGI [7]: 27.5 µM
TGI [8]: 30.6 µM
TGI [9]: 27.7 µM
TGI [10]: > 100 µM
TGI [11]: 46.5 µM
TGI [12]: 27.7 µM
TGI [13]: 34.8 µM
TGI [14]: 47.1 µM
TGI [15]: 20.6 µM
TGI [16]: 26.5 µM
TGI [17]: 29.4 µM
TGI [18]: 17.7 µM
TGI [19]: 25.9 µM
TGI [20]: 31.3 µM
TGI [21]: 9.01 µM
TGI [22]: 23.8 µM
TGI [23]: > 100 µM
TGI [24]: 34.5 µM
TGI [25]: 25.8 µM
TGI [26]: > 100 µM
TGI [27]: 37.1 µM
TGI [28]: 22.8 µM
TGI [29]: 23.6 µM
TGI [30]: 30 µM
TGI [31]: 21.4 µM
TGI [32]: 14.1 µM
TGI [33]: 22.4 µM
TGI [34]: 37.4 µM
TGI [35]: 26.1 µM
TGI [36]: 26.4 µM
TGI [37]: 30.7 µM
TGI [38]: 31.4 µM
TGI [39]: > 100 µM
TGI [40]: 27.2 µM
TGI [41]: 25.1 µM
TGI [42]: 28.9 µM
TGI [43]: 28 µM
TGI [44]: 30.5 µM
TGI [45]: 24.9 µM
TGI [46]: 7.03 µM
TGI [47]: 27.5 µM
TGI [48]: 29.9 µM
TGI [49]: 24.5 µM
TGI [50]: 29.3 µM
TGI [51]: 25.1 µM
TGI [52]: 27 µM
TGI [53]: 29.5 µM
TGI [54]: 24.6 µM

C1=CC(N(c2ccccc2)C2C=CCCC2)CCC1 (stereo unspecified)
TGI [1]: > 100 µM
TGI [2]: > 100 µM
TGI [3]: > 100 µM
TGI [5]: > 100 µM
TGI [7]: > 100 µM
TGI [8]: > 100 µM
TGI [10]: > 100 µM
TGI [11]: > 100 µM
TGI [12]: > 100 µM
TGI [15]: > 100 µM
TGI [16]: > 100 µM
TGI [17]: > 100 µM
TGI [19]: > 100 µM
TGI [20]: > 100 µM
TGI [21]: > 100 µM
TGI [22]: > 100 µM
TGI [23]: > 100 µM
TGI [24]: > 100 µM
TGI [25]: > 100 µM
TGI [26]: > 100 µM
TGI [27]: > 100 µM
TGI [28]: > 100 µM
TGI [29]: > 100 µM
TGI [30]: > 100 µM
TGI [32]: > 100 µM
TGI [35]: > 100 µM
TGI [36]: > 100 µM
TGI [38]: > 100 µM
TGI [41]: > 100 µM
TGI [42]: > 100 µM
TGI [55]: > 100 µM
TGI [43]: > 100 µM
TGI [44]: > 100 µM
TGI [45]: > 100 µM
TGI [46]: > 100 µM
TGI [56]: > 100 µM
TGI [57]: > 100 µM
TGI [50]: > 100 µM
TGI [52]: > 100 µM
TGI [53]: > 100 µM
TGI [54]: > 100 µM

O=C(Nc1nc(=S)c2c(ncn2CCOC(=O)c2ccccc2)[nH]1)c1ccccc1
TGI [1]: 39.3 µM
TGI [2]: > 100 µM
TGI [3]: > 100 µM
TGI [4]: 57.7 µM
TGI [5]: > 100 µM
TGI [6]: > 100 µM
TGI [7]: > 100 µM
TGI [8]: > 100 µM
TGI [9]: > 100 µM
TGI [10]: > 100 µM
TGI [11]: > 100 µM
TGI [12]: > 100 µM
TGI [13]: > 100 µM
TGI [15]: > 100 µM
TGI [16]: > 100 µM
TGI [17]: 94.3 µM
TGI [18]: 47.5 µM
TGI [19]: > 100 µM
TGI [20]: > 100 µM
TGI [21]: 59.2 µM
TGI [22]: > 100 µM
TGI [23]: > 100 µM
TGI [24]: > 100 µM
TGI [25]: > 100 µM
TGI [26]: > 100 µM
TGI [27]: > 100 µM
TGI [28]: > 100 µM
TGI [29]: > 100 µM
TGI [30]: > 100 µM
TGI [31]: > 100 µM
TGI [33]: > 100 µM
TGI [34]: > 100 µM
TGI [35]: > 100 µM
TGI [36]: > 100 µM
TGI [37]: > 100 µM
TGI [38]: > 100 µM
TGI [40]: 79.6 µM
TGI [41]: > 100 µM
TGI [42]: > 100 µM
TGI [55]: 68.1 µM
TGI [43]: > 100 µM
TGI [44]: > 100 µM
TGI [45]: > 100 µM
TGI [46]: > 100 µM
TGI [47]: > 100 µM
TGI [48]: > 100 µM
TGI [56]: > 100 µM
TGI [57]: > 100 µM
TGI [49]: > 100 µM
TGI [50]: > 100 µM
TGI [51]: > 100 µM
TGI [52]: > 100 µM
TGI [53]: > 100 µM
TGI [54]: > 100 µM

CN=C1CC2c3cc(OC)c(OC)cc3CCN2C2=C1C(=O)CC(C)(C)C2 (stereo unspecified)
TGI [1]: > 100 µM
TGI [5]: > 100 µM
TGI [6]: > 100 µM
TGI [7]: > 100 µM
TGI [8]: > 100 µM
TGI [9]: > 100 µM
TGI [10]: > 100 µM
TGI [11]: > 100 µM
TGI [12]: > 100 µM
TGI [13]: > 100 µM
TGI [14]: > 100 µM
TGI [15]: > 100 µM
TGI [16]: > 100 µM
TGI [17]: > 100 µM
TGI [18]: > 100 µM
TGI [20]: > 100 µM
TGI [21]: > 100 µM
TGI [22]: > 100 µM
TGI [24]: > 100 µM
TGI [25]: > 100 µM
TGI [27]: > 100 µM
TGI [28]: > 100 µM
TGI [29]: > 100 µM
TGI [31]: > 100 µM
TGI [32]: > 100 µM
TGI [33]: > 100 µM
TGI [34]: > 100 µM
TGI [36]: > 100 µM
TGI [37]: > 100 µM
TGI [38]: > 100 µM
TGI [39]: > 100 µM
TGI [41]: > 100 µM
TGI [42]: > 100 µM
TGI [55]: > 100 µM
TGI [43]: > 100 µM
TGI [44]: > 100 µM
TGI [45]: > 100 µM
TGI [47]: > 100 µM
TGI [48]: > 100 µM
TGI [56]: > 100 µM
TGI [57]: > 100 µM
TGI [49]: > 100 µM
TGI [50]: > 100 µM
TGI [51]: > 100 µM
TGI [52]: > 100 µM
TGI [53]: > 100 µM
TGI [54]: > 100 µM
